Tests used:
Type in all cases: cell-based
[1] = biological target: human TLR9 (Homo sapiens (Human), UniProt Q9NR96); test: TLR9 inhibition reporter assay (HEK-Blue, SEAP); conditions: HEK-Blue cells overexpressing human TLR9, ODN2006 5 nM stimulation
Procedure, shortened: (§1)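 HEK-Blue cells overexpressing the receptor carry a SEAP reporter under IFN-β minimal promoter with NF-κB/AP-1 sites. Compounds (0.05 nM–50 μM final) were preincubated 30 min at room temperature, then cells were stimulated with gardiquimod 7.5 μM (TLR7), R848 15.9 μM (TLR8) or ODN2006 5 nM (TLR9) for 22 h at 37 °C.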

[2] = biological target: human TLR7 (Homo sapiens (Human), UniProt Q9NYK1); test: TLR7 inhibition reporter assay (HEK-Blue, SEAP); conditions: HEK-Blue cells overexpressing human TLR7, gardiquimod 7.5 μM stimulation
Procedure, shortened: as §1

[3] = biological target: human TLR8 (Homo sapiens (Human), UniProt Q9NR97); test: TLR8 inhibition reporter assay (HEK-Blue, SEAP); conditions: HEK-Blue cells overexpressing human TLR8, R848 15.9 μM stimulation
Procedure, shortened: as §1

Chain of human TLR9 (Q9NR96 26-1032): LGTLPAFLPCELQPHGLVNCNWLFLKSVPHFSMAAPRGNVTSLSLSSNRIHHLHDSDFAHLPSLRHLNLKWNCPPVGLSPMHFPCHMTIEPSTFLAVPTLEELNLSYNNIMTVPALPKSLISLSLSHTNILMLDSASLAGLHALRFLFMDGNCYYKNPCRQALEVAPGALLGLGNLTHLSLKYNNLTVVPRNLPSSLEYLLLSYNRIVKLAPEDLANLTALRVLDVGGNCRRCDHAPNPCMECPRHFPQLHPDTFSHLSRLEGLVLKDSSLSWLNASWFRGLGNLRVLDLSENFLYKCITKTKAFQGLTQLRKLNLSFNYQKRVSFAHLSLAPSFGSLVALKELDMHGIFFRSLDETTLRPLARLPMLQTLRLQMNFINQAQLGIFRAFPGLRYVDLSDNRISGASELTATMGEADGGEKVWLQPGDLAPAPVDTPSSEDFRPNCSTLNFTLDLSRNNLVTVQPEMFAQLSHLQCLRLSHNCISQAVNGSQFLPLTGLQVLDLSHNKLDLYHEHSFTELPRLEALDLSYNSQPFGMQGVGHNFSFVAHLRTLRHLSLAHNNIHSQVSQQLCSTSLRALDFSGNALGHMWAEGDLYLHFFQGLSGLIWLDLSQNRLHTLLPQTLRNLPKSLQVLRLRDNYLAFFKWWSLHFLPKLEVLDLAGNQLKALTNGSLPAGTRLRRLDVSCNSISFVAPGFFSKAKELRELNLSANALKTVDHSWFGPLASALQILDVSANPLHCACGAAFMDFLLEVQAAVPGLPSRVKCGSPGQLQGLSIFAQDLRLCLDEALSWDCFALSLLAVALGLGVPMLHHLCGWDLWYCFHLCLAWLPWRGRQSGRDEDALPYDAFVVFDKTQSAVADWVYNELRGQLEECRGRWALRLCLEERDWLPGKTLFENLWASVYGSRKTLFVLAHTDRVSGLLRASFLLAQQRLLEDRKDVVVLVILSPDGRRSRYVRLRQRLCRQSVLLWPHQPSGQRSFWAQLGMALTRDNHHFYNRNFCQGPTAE
Chain of human TLR8 (Q9NR97 27-1041): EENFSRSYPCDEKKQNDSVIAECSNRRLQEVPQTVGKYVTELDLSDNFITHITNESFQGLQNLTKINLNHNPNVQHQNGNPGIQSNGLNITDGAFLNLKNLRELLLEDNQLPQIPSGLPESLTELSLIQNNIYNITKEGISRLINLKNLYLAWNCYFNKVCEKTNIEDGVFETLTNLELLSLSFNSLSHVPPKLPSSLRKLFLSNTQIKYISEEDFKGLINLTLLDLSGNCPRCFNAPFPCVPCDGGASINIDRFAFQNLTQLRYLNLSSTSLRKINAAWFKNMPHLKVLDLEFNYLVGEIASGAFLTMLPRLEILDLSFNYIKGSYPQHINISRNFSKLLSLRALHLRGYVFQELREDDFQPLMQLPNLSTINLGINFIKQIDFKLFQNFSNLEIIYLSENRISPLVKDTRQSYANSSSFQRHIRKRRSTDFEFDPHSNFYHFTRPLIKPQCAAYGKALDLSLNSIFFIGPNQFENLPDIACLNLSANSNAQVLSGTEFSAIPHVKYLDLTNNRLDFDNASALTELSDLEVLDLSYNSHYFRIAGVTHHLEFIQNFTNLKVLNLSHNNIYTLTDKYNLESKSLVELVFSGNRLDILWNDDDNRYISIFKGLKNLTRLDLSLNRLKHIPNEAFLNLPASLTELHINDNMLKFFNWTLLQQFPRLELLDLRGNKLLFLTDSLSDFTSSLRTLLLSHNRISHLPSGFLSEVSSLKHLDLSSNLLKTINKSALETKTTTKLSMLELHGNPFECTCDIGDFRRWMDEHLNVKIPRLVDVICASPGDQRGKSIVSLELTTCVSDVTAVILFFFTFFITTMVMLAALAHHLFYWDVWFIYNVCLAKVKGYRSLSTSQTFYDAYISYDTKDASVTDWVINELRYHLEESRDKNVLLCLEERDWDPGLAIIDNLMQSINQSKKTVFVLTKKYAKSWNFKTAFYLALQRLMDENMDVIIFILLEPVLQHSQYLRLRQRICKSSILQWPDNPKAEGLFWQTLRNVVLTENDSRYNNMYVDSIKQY
Chain of human TLR7 (Q9NYK1 27-1049): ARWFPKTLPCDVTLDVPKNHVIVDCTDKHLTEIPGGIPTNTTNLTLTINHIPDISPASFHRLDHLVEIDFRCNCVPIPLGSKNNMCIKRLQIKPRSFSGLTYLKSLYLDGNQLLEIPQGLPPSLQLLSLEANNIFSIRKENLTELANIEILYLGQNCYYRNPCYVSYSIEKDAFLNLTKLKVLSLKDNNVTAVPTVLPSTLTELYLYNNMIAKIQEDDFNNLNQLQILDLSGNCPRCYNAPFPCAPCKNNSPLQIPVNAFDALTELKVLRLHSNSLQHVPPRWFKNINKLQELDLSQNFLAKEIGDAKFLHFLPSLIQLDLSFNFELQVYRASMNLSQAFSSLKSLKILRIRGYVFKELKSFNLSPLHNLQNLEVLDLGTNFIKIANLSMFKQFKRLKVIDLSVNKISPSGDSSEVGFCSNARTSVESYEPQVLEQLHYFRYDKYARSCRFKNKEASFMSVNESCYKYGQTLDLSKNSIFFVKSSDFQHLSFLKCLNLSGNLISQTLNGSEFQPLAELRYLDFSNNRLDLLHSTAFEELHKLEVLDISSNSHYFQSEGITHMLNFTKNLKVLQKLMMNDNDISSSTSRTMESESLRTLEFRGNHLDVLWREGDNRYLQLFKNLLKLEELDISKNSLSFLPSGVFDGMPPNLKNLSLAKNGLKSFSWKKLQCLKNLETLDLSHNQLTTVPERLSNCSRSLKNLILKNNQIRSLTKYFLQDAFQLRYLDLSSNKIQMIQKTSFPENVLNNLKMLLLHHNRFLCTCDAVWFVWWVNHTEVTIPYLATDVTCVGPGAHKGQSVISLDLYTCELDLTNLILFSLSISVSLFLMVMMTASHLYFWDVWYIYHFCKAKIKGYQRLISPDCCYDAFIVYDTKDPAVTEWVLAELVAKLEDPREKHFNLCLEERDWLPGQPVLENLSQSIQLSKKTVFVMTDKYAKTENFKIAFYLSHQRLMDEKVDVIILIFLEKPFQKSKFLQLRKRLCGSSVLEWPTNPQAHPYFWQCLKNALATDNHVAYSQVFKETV

Cc1cc(-c2[nH]c3ccc(-c4nnc(CCCN(C)C)o4)cc3c2C(C)C)ccn1 [Example 77, 3-(5-(3-isopropyl-2-(2-methylpyridin-4-yl)-1H-indol-5-yl)-1,3,4-oxadiazol-2-yl)-N,N-dimethylpropan-1-amine]
IC50 [1]: 695 nM | IC50 [2]: 29 nM | IC50 [3]: 1.7 nM

Cc1cc(-c2[nH]c3ccc(-c4nnc(C5CCC(C(F)(F)F)CC5)o4)cc3c2C(C)C)ccn1 (stereo not drawn) [Example 78, 2-(3-isopropyl-2-(2-methylpyridin-4-yl)-1H-indol-5-yl)-5-(4-(trifluoromethyl)cyclohexyl)-1,3,4-oxadiazole]
IC50 [1]: > 50000 nM | IC50 [2]: 2700 nM | IC50 [3]: 535 nM

Cc1cc(-c2[nH]c3ccc(-c4nnc(CN5CCN(C)CC5)o4)cc3c2C(C)C)ccn1 [Example 79, 2-(3-isopropyl-2-(2-methylpyridin-4-yl)-1H-indol-5-yl)-5-((4-methylpiperazin-1-yl)methyl)-1,3,4-oxadiazole]
IC50 [1]: 1250 nM | IC50 [2]: 65 nM | IC50 [3]: 7.5 nM

Cc1cc(-c2[nH]c3ccc(-c4nnc([C@@H]5CCCNC5)o4)cc3c2C(C)C)ccn1 [Example 80, (R)-2-(3-isopropyl-2-(2-methylpyridin-4-yl)-1H-indol-5-yl)-5-(piperidin-3-yl)-1,3,4-oxadiazole]
IC50 [1]: 592 nM | IC50 [2]: 19 nM | IC50 [3]: 1.2 nM

Cc1cc(-c2[nH]c3ccc(-c4nnc([C@@H]5Cc6ccccc6CN5)o4)cc3c2C(C)C)ccn1 [Example 81, (S)-2-(3-isopropyl-2-(2-methylpyridin-4-yl)-1H-indol-5-yl)-5-(1,2,3,4-tetrahydroisoquinolin-3-yl)-1,3,4-oxadiazole]
IC50 [1]: > 50000 nM | IC50 [2]: 774 nM | IC50 [3]: 73 nM

Cc1cc(-c2[nH]c3ccc(-c4nnc([C@H]5CSCN5)o4)cc3c2C(C)C)ccn1 [Example 82, (S)-2-(3-isopropyl-2-(2-methylpyridin-4-yl)-1H-indol-5-yl)-5-(thiazolidin-4-yl)-1,3,4-oxadiazole]
IC50 [1]: > 50000 nM | IC50 [2]: 596 nM | IC50 [3]: 96 nM

COc1ccc(-c2[nH]c3ccc(-c4nnc(C5CCN(CC(=O)N(C)C)CC5)o4)cc3c2CC(F)(F)F)cc1OC [Example 83, 2-(4-(5-(2-(3,4-dimethoxyphenyl)-3-(2,2,2-trifluoroethyl)-1H-indol-5-yl)-1,3,4-oxadiazol-2-yl)piperidin-1-yl)-N,N-dimethylacetamide]
IC50 [1]: 2550 nM | IC50 [2]: 158 nM | IC50 [3]: 40 nM

CC(C)c1c(-c2ccnc3[nH]ncc23)[nH]c2ccc(-c3nnc(C(=O)NC4CCN(C(C)C)CC4)o3)cc12 [Example 84, 5-(3-isopropyl-2-(1H-pyrazolo[3,4-b]pyridin-4-yl)-1H-indol-5-yl)-N-(1-isopropylpiperidin-4-yl)-1,3,4-oxadiazole-2-carboxamide]
IC50 [1]: 235 nM | IC50 [2]: 87 nM | IC50 [3]: 6 nM

CC(C)c1c(-c2ccnc3[nH]ncc23)[nH]c2ccc(-c3nnc(C(=O)N4CC5CNCC5C4)o3)cc12 (stereo not drawn) [Example 85, (hexahydropyrrolo[3,4-c]pyrrol-2(1H)-yl)(5-(3-isopropyl-2-(1H-pyrazolo[3,4-b]pyridin-4-yl)-1H-indol-5-yl)-1,3,4-oxadiazol-2-yl)methanone]
IC50 [1]: 590 nM | IC50 [2]: 328 nM | IC50 [3]: 9.2 nM

CC(C)c1c(-c2ccnc3[nH]ncc23)[nH]c2ccc(-c3nnc(C4CCN(C(=O)CN(C)C)CC4)o3)cc12 [Example 86, 2-(dimethylamino)-1-(4-(5-(3-isopropyl-2-(1H-pyrazolo[3,4-b]pyridin-4-yl)-1H-indol-5-yl)-1,3,4-oxadiazol-2-yl)piperidin-1-yl)ethan-1-one]
IC50 [1]: 324 nM | IC50 [2]: 85 nM | IC50 [3]: 6.1 nM

CC(C)c1c(-c2ccnc3[nH]ncc23)[nH]c2ccc(-c3nnc(C4CCN(CC(=O)N(C)C)CC4)o3)cc12 [Example 87, 2-(4-(5-(3-isopropyl-2-(1H-pyrazolo[3,4-b]pyridin-4-yl)-1H-indol-5-yl)-1,3,4-oxadiazol-2-yl)piperidin-1-yl)-N,N-dimethylacetamide]
IC50 [1]: 5660 nM | IC50 [2]: 549 nM | IC50 [3]: 9.8 nM
